The subject of series [1] is tubulin (a main constituting protein of the microtubule). Description: Tubulin polymerization-promoting / depolymerization-inhibiting activity (absorbance at 350 nm). The series is classed as biochemical. The note with it: for Depolymerization-inhibiting activity / Polymerization-promoting activity: relative activity, paclitaxel taken as 100, 5µM; for Depolymerization-inhibiting activity: absorbance at 350 nm 5 minutes after addition of calcium chloride; for Polymerization-promoting activity: tubulin, 37°C, 15 minutes, absorbance at 350 nm. As to the method: Next, each of the above-described samples is mixed with tubulin (a main constituting protein of the microtubule) and allowed to react at 37°C for 15 minutes. Absorbance at 350 nm of the reaction solution was measured at 2, 5, 10 and 15 minutes after initiation of the reaction. Also, after the reaction ended, calcium chloride was added and. 5 minutes after its addition, absorbance at 350 nm was again measured. From each measured value the relative activity of each sample was determined such that polymerization-promoting activity and depolymerization - inhibiting activity were taken as 100, and the results are shown in Table 2.

Series [2] is described as follows: Stability in aqueous solution. It counts as physicochemical. As to conditions: decomposed to paclitaxel. An excerpt:
As clearly shown in the Table compared with paclitaxel, the solubility of paclitaxel derivatives show strikingly high values.

A short description of series [3]: Solubility in water (stirred in water, filtrate analysed by HPLC). As to the method: After stirring, the supernatant was filtered by a membrane filter (0.45µm) and a filtate was analyzed by HPLC.
The conditions of series [4]: I.Ringer et al., J. Natl. Cancer Inst., 83, 288 (1991); cited from earlier work.
The mark [5] stands for this setting: in water, 10 mg in 5 ml water, stirred for 18 hours, filtered 0.45µm, HPLC.

In brackets after ≈: the same amount, converted by molar mass.

As a reminder, the Solubility is how much of the substance goes into solution per volume. A higher Solubility goes with much dissolved substance. A word on the solubility: it is the concentration that dissolves in the medium under given conditions.

`CC(=O)O[C@H]1C(=O)[C@]2(C)[C@@H](OC(=O)COC3O[C@H](CO)[C@@H](O)[C@H](O)[C@H]3O)C[C@H]3OC[C@@]3(OC(C)=O)[C@H]2[C@H](OC(=O)c2ccccc2)[C@]2(O)C[C@H](OC(=O)[C@H](OC(=O)COC3O[C@H](CO)[C@@H](O)[C@H](O)[C@H]3O)[C@@H](NC(=O)c3ccccc3)c3ccccc3)C(C)=C1C2(C)C` (some centres unmarked) [2',7-S-paclitaxel, Diglucosyloxyacetyl-2',7-paclitaxe]: in series [1], the Depolymerization-inhibiting activity was 77.7 and the Polymerization-promoting activity worked out at 40.5. In addition, the “stability in aqueous solutions” value in series [2] was “unstable in aqueous solutions”. Moreover, the “solubility in water relative to paclitaxel” value in series [3] is recorded as 121 times. Moreover, in series [3] (setting [5]), the Solubility amounted to 48.4 µg/mL (≈ 37.4 µM).
As to `CC(=O)O[C@H]1C(=O)[C@@]2(C)[C@H]([C@H](OC(=O)c3ccccc3)[C@]3(O)C[C@H](OC(=O)[C@H](OC(=O)COC4O[C@H](CO)[C@@H](O)[C@H](O)[C@H]4O)[C@@H](NC(=O)c4ccccc4)c4ccccc4)C(C)=C1C3(C)C)[C@]1(OC(C)=O)CO[C@@H]1C[C@@H]2O` (some centres unmarked) [2'-S-paclitaxel, Glucosyloxyacetyl-2'-paclitaxel], in series [1], the Depolymerization-inhibiting activity was 100 and the Polymerization-promoting activity was determined as 52.7. Also, the “stability in aqueous solutions” value in series [2] is on record as “unstable in aqueous solutions”. In addition, in series [3], the “solubility in water relative to paclitaxel” value came to 76.5 times. The Solubility in series [3] (setting [5]) was found to be 30.6 µg/mL (≈ 28.5 µM).
Regarding `CC(=O)O[C@H]1C(=O)[C@]2(C)[C@@H](OC(=O)COC3O[C@H](CO)[C@@H](O)[C@H](O)[C@H]3O)C[C@H]3OC[C@@]3(OC(C)=O)[C@H]2[C@H](OC(=O)c2ccccc2)[C@]2(O)C[C@H](OC(=O)[C@H](O)[C@@H](NC(=O)c3ccccc3)c3ccccc3)C(C)=C1C2(C)C` (some centres unmarked) [7-S-paclitaxel, Glucosyloxyacetyl-7-paclitaxel], in series [1], the Depolymerization-inhibiting activity was 225 and the Polymerization-promoting activity was 91.9. Besides, the “depolymerization-inhibiting activity compared with paclitaxel” value in series [1] (statement in words, comparison with paclitaxel) is on record as “more than twice as potent as that of paclitaxel”. For the same compound, the “solubility in water relative to paclitaxel” value in series [3] was 36.8 times. The Solubility in series [3] (setting [5]) was 14.7 µg/mL (≈ 13.7 µM).
Consider `CC(=O)O[C@H]1C(=O)[C@@]2(C)[C@H]([C@H](OC(=O)c3ccccc3)[C@]3(O)C[C@H](OC(=O)[C@H](O)[C@@H](NC(=O)c4ccccc4)c4ccccc4)C(C)=C1C3(C)C)[C@]1(OC(C)=O)CO[C@@H]1C[C@@H]2O` [Paclitaxel, reference compound], for which, in series [1], the Depolymerization-inhibiting activity stood at 100 and the Polymerization-promoting activity is given as 100. In series [3] (18 h), this compound gave a Solubility of 0.4 µg/mL (≈ 0.468 µM). Moreover, in series [3] (water, thermodynamic from solid), the solubility at 18 h came out at 0.4 µg/mL (≈ 0.468 µM).
In the case of `CC(=O)O[C@@]12CO[C@@H]1C[C@H](O)[C@@]1(C)C(=O)[C@H](O)C3=C(C)[C@@H](OC(=O)[C@H](O)[C@@H](NC(=O)OC(C)(C)C)c4ccccc4)C[C@@](O)([C@@H](OC(=O)c4ccccc4)[C@H]21)C3(C)C` [docetaxel], the “solubility of docetaxel in water relative to paclitaxel” value in series [4] is given as 1.3 times.
